Experimental data from patent US20070105931A1, “Methods and compositions for inhibiting the proliferation of prostate cancer cells” (Mayo Foundation for Medical Education and Research, priority 2003, published 2007).

Legend:
[1] = system: hK2; assay: Secreted hK2 protein level (immunoassay), LNCaP; format: cell-based, human; details: for IC50: LNCaP cells, secreted hK2 in spent medium, treated 6 days
Method: (§1) FIG. 1 is a graph showing the effects of NSAIDs on the expression of PSA and hK2 proteins in prostate cancer cells ±1 nM Mib. […] PSA and hK2 values were normalized to growth response measured by a 3-(4,5-dimethylthiazol-2-yl)-2,5-diphenyltetrazolium bromide assay and expressed as a percentage of that group treated with Mib only. Error bars indicate the SE of four separate experiments.
(§2) Human prostate cancer cell lines LNCaP (American Type Culture Collection, Manassas, Va.) and LAPC-4 (kindly provided by Dr. Charles L. Sawyers; Zhu et al., 1999, Endocrinology, 140:5451-4) were maintained in RPMI 1640 (Mediatech, Hercules, Calif.) containing 5% FBS (Biofluids, Rockville, Md.) at 37° C. and 5% CO2. To avoid potential interference of existing steroids in FBS, the media were first replaced by serum-free RPMI 1640 for 24 h. Cells were then cultured in RPMI 1640 with 5% charcoalstripped FBS supplemented with or without 1 nM Mib (New England Nuclear, Boston, Mass.), a nomnetabolizable, synthetic androgen.
(§3) Cells were plated in 24-well plates at 2×10^4 cells/well. […] MTS assay (Promega, Madison, Wis.) was performed to determine cell proliferation 6 days after the treatment. To measure secreted PSA and hK2 levels, 400 μl of spent medium from cells treated for 6 days were collected. PSA and hK2 proteins levels were determined using specific immunoassays (Mayo Immunochemical Core Facility). These measurements were used to the calculate 50% inhibitory concentration (IC50) of each of the NSAIDs.

[2] = system: PSA; assay: Secreted PSA protein level (immunoassay), LNCaP; format: cell-based, human; details: for IC50: LNCaP cells, secreted PSA in spent medium, treated 6 days
Method: as §1, §2, §3

[3] = system: hK2; assay: Secreted hK2 protein level (immunoassay), LAPC-4; format: cell-based, human; details: LAPC-4 cells, secreted hK2 in spent medium, treated 6 days
Method: as §1, §2, §3

[4] = system: LNCaP cells; assay: Growth response (MTS cell proliferation assay), LNCaP; format: cell-based, human; details: MTS assay 6 days after treatment
Method: as §2, §3

[5] = system: PSA; assay: Secreted PSA protein level (immunoassay), LAPC-4; format: cell-based, human; details: LAPC-4 cells, secreted PSA in spent medium, treated 6 days
Method: as §1, §2, §3

[6] = system: LAPC-4 cells; assay: Growth response (MTS cell proliferation assay), LAPC-4; format: cell-based, human; details: MTS assay 6 days after treatment
Method: as §2, §3

[7] = system: androgen receptor; assay: IL6-activated hK2 ARE-SV40-pGL3 reporter, transient transfection; format: cell-based, human; details: celecoxib 50 μM, nimesulide 100 μM; IL6 50 ng/ml; androgen 1 nM
Method: Experiments were performed to determine whether or not IL6 increased expression of PSA and/or hK2.

[8] = system: AR; assay: Western blot of AR protein expression; format: cell-based, human; details: concentrations used in the transfections
Method: (§4) Cells were seeded at 1×10^5 cells/plate in 100 mm dishes. […] The cells were collected by centrifugation and washed with nimesulide for 15 or 24 h. The cells were collected by centrifugation and washed with cold PBS. Cell lysates were prepared in radioimmunoprecipitation assay buffer (PBS containing 1% NP40, 0.5% sodium deoxycholate, 0.1% SDS plus freshly added protease inhibitors, 100 μg/ml phenylmethylsulfonyl fluoride, 30 μl/ml aprotinin, and 1 mM sodium orthovanadate) and used for Western blot analysis. The sample filters were immunoblotted with c-Jun, phospho-c-Jun (Cell Signaling, Beverly, Mass.), AR (PharMingen, San Diego, Calif.), and FKBP51 (a gift from Dr. D. O. Toft; Mayo Clinic) specific primary antibodies and horseradish peroxidase-conjugated secondary antibodies and visualized by enhanced chemiluminescence (Amersham Pharmacia, Piscataway, N.J.).

[9] = system: AR promoter (−1380/+577); assay: AR promoter-luciferase reporter assay in LNCaP cells; details: 1 nM Mib, 24 h, FIG. 3A
[10] = system: AR/ARE (hK2 3xARE-SV40 minimal promoter); assay: hK2 3xARE luciferase reporter assay in LNCaP cells; details: P<0.05, 24 h
[11] = system: c-Jun; assay: Western blot of c-Jun protein in LNCaP cells; format: cell-based, human; details: 24 h of treatment
Method: as §4

[12] = system: STAT3; assay: Western blot of STAT3 and phosphorylated STAT3 in IL6-treated LNCaP cells; format: cell-based, human
Method: Experiments were then performed to determine if STAT3 is phosphorylated following exposure to IL6.
The same cells were treated with 50 μM of a potent phosphatase inhibitor, peroxovanadate (POV), to determine if the nimesulide-mediated inhibition of phosphorylation of STAT3 by IL6 was due to activation of one or more phosphatases. […] Therefore, the inhibitory effect of nimesulide on phosphorylation of STAT3 by IL6 may be caused by activation of one or more phosphatases, because the inhibitor could partially reverse the reduced phosphorylation of STAT3 by nimesulide. It was noted that POV alone had no effect on phosphorylation of STAT3 in the absence of IL6.

[13] = system: FKBP51; assay: Western blot of androgen-up-regulated FKBP51 protein; format: cell-based, human; details: 1 nM Mib
Method: as §4

[14] = system: STAT3; assay: STAT3 responsive element luciferase reporter in LNCaP cells; details: celecoxib 50 μM, nimesulide 100 μM, IL6 25-50 ng/ml, six hours
[15] = system: 6-kb PSA promoter; assay: PSA promoter-luciferase reporter assay in LNCaP cells; details: concentration as low as 25 μM, 1 nM Mib, 24 h
[16] = FIG. 1, dose-dependent, LNCaP and LAPC-4 cells, 1 nM Mib

| Compound | IC50 ([1]; Homo sapiens, 144 h) | IC50 ([2]; Homo sapiens, 144 h) | IC50 ([3]; Homo sapiens, 144 h) | IC50 ([4]; Homo sapiens, 144 h) | IC50 ([5]; Homo sapiens, LAPC4, 144 h) | IC50 ([6]; Homo sapiens, LAPC4, 144 h) | also measured |
| --- | --- | --- | --- | --- | --- | --- | --- |
| CC(=O)Oc1ccccc1C(=O)O [Aspirin] | > 1000 µM | > 1000 µM | > 1000 µM | > 1000 µM | > 1000 µM | > 1000 µM | – |
| Cc1ccc(-c2cc(C(F)(F)F)nn2-c2ccc(S(N)(=O)=O)cc2)cc1 [Celecoxib] | 29.6 µM | 20 µM | 43.7 µM | – | 28.7 µM | 44.5 µM | – |
| CC(C(=O)O)c1cccc(Oc2ccccc2)c1 (centres unmarked) [Fenoprofen] | 229 µM | 210 µM | – | > 300 µM | – | – | – |
| CC(C(=O)O)c1ccc(-c2ccccc2)c(F)c1 (centres unmarked) [Flurbiprofen] | 281 µM | 206 µM | 221 µM | > 300 µM | 234 µM | 347 µM | – |
| CC1=C(CC(=O)O)c2cc(F)ccc2/C1=C\c1ccc(S(C)(=O)=O)cc1 [Sulindac sulfone] | – | – | – | – | – | – | IC50 [1]: 97.6 µM; IC50 [2]: 206 µM; IC50 [3]: > 300 µM; IC50 [4]: > 300 µM; IC50 [5]: 194 µM; IC50 [6]: 253 µM |
| peroxovanadate [POV] | – | – | – | – | – | – | phosphorylation of STAT3 in the absence of IL6 ([12]; 50 μM POV alone): no effect |

Continued, in another order:

| IC50 ([1]; Homo sapiens, 144 h) | IC50 ([2]; Homo sapiens, 144 h) | IC50 ([3]; Homo sapiens, 144 h) | IC50 ([4]; Homo sapiens, 144 h) | IC50 ([5]; Homo sapiens, LAPC4, 144 h) | Compound | IC50 ([6]; Homo sapiens, LAPC4, 144 h) | also measured |
| --- | --- | --- | --- | --- | --- | --- | --- |
| 860 µM | 783 µM | 803 µM | > 1000 µM | 870 µM | CC(C)Cc1ccc(C(C)C(=O)O)cc1 (centres unmarked) [Ibuprofen] | 740 µM | – |
| 272 µM | 224 µM | 207 µM | > 300 µM | 203 µM | COc1ccc2c(c1)c(CC(=O)O)c(C)n2C(=O)c1ccc(Cl)cc1 [Indomethacin] | 170 µM | – |
| > 300 µM | > 300 µM | > 300 µM | > 300 µM | > 300 µM | CC(C(=O)O)c1cccc(C(=O)c2ccccc2)c1 (centres unmarked) [Ketoprofen] | > 300 µM | – |
| 377 µM | 300 µM | > 300 µM | 193 µM | > 300 µM | Cc1cnc(NC(=O)C2=C(O)c3ccccc3S(=O)(=O)N2C)s1 [Meloxicam] | 92 µM | – |
| 23 µM | 27 µM | 61 µM | 38.2 µM | 76.5 µM | CS(=O)(=O)Nc1ccc([N+](=O)[O-])cc1Oc1ccccc1 [Nimesulide] | 104 µM | expression of hK2 [1, 16]: suppressed; androgen receptor-mediated expression of the reporter gene activated by IL6 or IL6 plus androgen [7]: inhibit; AR protein expression [8]: reduced; transcription activities of the AR promoter (−1380/+577) [9]: repressed; expression of PSA [2, 16]: suppressed; AR/ARE-mediated gene expression (hK2 3xARE reporter) [10]: significantly reduced; c-Jun protein [11]: strongly induced; phosphorylation of STAT3 by IL6 ([12]; celecoxib 50 μM, nimesulide 100 μM, IL6 25-50 ng/ml): significantly suppressed; androgen-up-regulated FKBP51 protein expression [13]: alleviated; STAT3-specific responsive element-mediated luciferase expression activated by IL6 [14]: inhibited; androgen-induced PSA promoter activity [15]: significantly reduced |
| > 300 µM | > 300 µM | > 300 µM | > 300 µM | > 300 µM | CC1=C(CC(=O)O)c2cc(F)ccc2/C1=C\c1ccc([S+](C)[O-])cc1 (centres unmarked) [Sulindac] | > 300 µM | – |
